The record followed here is BindingDB's records for patent US9040727 (Shanghai Institute of Pharmaceutical Industry, 2015).

pIC50: −log10 of the molar value.

The target in the test is Histone deacetylase 1 (Homo sapiens, UniProt Q13547). The test is described as follows: Inhibition Assay.
Chain of Histone deacetylase 1 (Q13547 whole entry): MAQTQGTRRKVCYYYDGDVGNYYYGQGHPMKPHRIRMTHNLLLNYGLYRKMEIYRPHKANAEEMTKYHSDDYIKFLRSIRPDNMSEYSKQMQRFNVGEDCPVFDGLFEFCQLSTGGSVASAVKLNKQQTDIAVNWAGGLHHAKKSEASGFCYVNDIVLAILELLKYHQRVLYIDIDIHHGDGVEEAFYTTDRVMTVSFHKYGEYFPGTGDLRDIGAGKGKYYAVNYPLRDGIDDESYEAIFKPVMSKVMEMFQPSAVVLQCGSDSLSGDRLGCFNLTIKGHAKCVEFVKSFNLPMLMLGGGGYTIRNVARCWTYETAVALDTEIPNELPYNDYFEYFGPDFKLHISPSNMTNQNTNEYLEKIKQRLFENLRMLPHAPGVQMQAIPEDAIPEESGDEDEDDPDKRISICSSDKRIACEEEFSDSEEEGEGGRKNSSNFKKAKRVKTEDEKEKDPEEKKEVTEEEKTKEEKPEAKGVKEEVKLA
Molecule `Nc1ccccc1NC(=O)c1ccc(CNC(=O)c2cc3ccccc3o2)cc1` [US9040727, V-8] gave a pIC50 of 6.14.

Consider `Nc1ccccc1NC(=O)c1ccc(CNC(=O)c2cc3cc(C(F)(F)F)ccc3[nH]2)cc1` [US9040727, V-20], for which the pIC50 is 6.00.

With `Nc1ccc(F)cc1NC(=O)c1ccc(CNC(=O)c2cc3ccccc3o2)cc1` [US9040727, V-9], the pIC50 is 6.75.

`Nc1ccccc1NC(=O)c1ccc(CNC(=O)c2cc3ccccc3[nH]2)cc1` [US9040727, V-5] showed a pIC50 of 6.67.

Regarding `Nc1ccc(-c2cccs2)cc1NC(=O)c1ccc(CNC(=O)c2cc3ccccc3o2)cc1` [US9040727, V-10], the pIC50 is 5.79.

Take `Nc1ccc(-c2ccco2)cc1NC(=O)c1ccc(CNC(=O)c2nc3ccccc3[nH]2)cc1` [US9040727, V-14]: the pIC50 is 6.48.
